In the NIST ThermoML archive (doi:10.1016/j.jct.2011.01.014):

Assay: xn = mol fraction of the nth substance listed
Settings: 101 kPa, Liquid; for speed of sound: sound velocity cell; for mass density: Vibrating tube method

CC(=O)[O-].[NH3+]CCO [2-hydroxyethylammonium acetate] + O
Settings | mass density, 298.15 K [kg/m3] | mass density, 300.65 K [kg/m3] | mass density, 303.15 K [kg/m3] | mass density, 305.65 K [kg/m3] | speed of sound, 295.65 K [m/s] | speed of sound, 298.15 K [m/s] | speed of sound, 300.65 K [m/s] | speed of sound, 303.15 K [m/s]
x1 = 0.051 | 1051.43 | 1050.38 | 1049.3 | 1048.18 | – | 1685.5 | 1687.2 | 1688.6
x1 = 0.1019 | 1080.72 | 1079.57 | 1078.39 | 1077.21 | – | 1766.7 | 1765.8 | 1764.8
x1 = 0.1963 | 1111.36 | 1110.06 | 1108.74 | 1107.43 | – | 1827 | 1823.9 | 1820.6
x1 = 0.2894 | 1125.89 | 1124.53 | 1123.17 | 1121.8 | – | 1835.5 | 1831.6 | 1827.5
x1 = 0.3959 | 1135.24 | 1133.86 | 1132.47 | 1131.08 | – | 1825.2 | 1820.6 | 1816
x1 = 0.5016 | 1140.33 | 1138.94 | 1137.56 | 1136.16 | – | 1814.2 | 1809.4 | 1804.6
x1 = 0.5821 | 1142.82 | 1141.44 | 1140.07 | 1138.68 | 1816.5 | 1811.6 | 1806.7 | 1801.9
x1 = 0.6837 | 1144.63 | 1143.27 | 1141.9 | 1140.52 | 1808.4 | 1803.3 | 1798.2 | 1793.2
x1 = 0.7763 | 1146.5 | 1145.08 | 1143.67 | 1142.31 | 1807.5 | 1802.1 | 1796.9 | 1791.7
x1 = 0.8761 | 1147.91 | 1146.49 | 1145.07 | 1143.65 | 1798.7 | 1793 | 1787.4 | 1782
x1 = 0.9137 | 1148.26 | 1146.85 | 1145.43 | 1144.01 | 1800.5 | 1794.7 | 1789.1 | 1783.6
x1 = 1 | 1149.04 | 1147.63 | 1146.22 | 1144.8 | 1796.8 | 1790.7 | 1784.8 | 1779
